Measurements taken from patent publication US11603368B2, “Fused thiophene derivatives and their uses” (ENYO PHARMA, priority 2018, dated 2023).
Structures can show the parent of a compound that is named as a salt.

tested on: H1N1 (influenza A/New Caledonia/20/99); experiment: Antiviral effect on A549 cells infected with H1N1; assay type: cell-based, H1N1 A/New Caledonia/20/99 virus; details: Human A549 cells, MOI of 0.1, 48 h post-infection, MUNANA hydrolysis readout
Experimental: The antiviral effect of the compounds of the invention has been tested on A549 cell lines infected with H1N1 (influenza A/New Caledonia/20/99).
Human A549 cells (80,000 cells/well in a 96 well plate) were treated with a range of concentration of test molecules and immediately infected by H1N1 A/New Caledonia/20/99 virus (clinical isolate) at MOI of 0.1 in DMEM/1% Penicillin/streptomycin supplemented with 0.25 μg/ml TPCK trypsin (Sigma) and incubated at 37° C. in 5% CO2. 48 h post-infection, supernatants (25 μl) were collected and transferred into a 96-well black flat-bottom plate, mixed with 25 μl PBS with Ca++/Mg++(Thermo Fisher) and 50 μl of 2′-(4-Methylumbelliferyl)-α-D-N-acetylneuraminic acid sodium salt hydrate stock-solution (20 μM, MUNANA, Sigma). Plates were incubated 1 h at 37° C. and reaction is stopped by adding 100 μl of Stop Solution (glycine 0.1 M pH10.7/25% ethanol). The amount of fluorescent product released by MUNANA hydrolysis (4-MU) was measured in a Tecan spectrophotometer with excitation and emission wavelengths of 365 and 450 nm respectively.

SMILES | IC50
O=C(Nc1sc2c(c1C(=O)O)C1CCC2C1)c1ccccc1 (centres unmarked) [#28] | 1270 nM
O=C(Nc1sc2c(c1C(=O)O)CCC(c1ccccc1)C2)c1ccccc1 (centres unmarked) [#47A] | 40 nM
O=C(Nc1sc2c(c1C(=O)O)CCC(c1ccccc1)C2)c1ccccc1 (centres unmarked) [#47B] | 70 nM
CC(C)(C)C1CCc2c(sc(NC(=O)c3ccccc3)c2C(=O)O)C1 (centres unmarked) [#66] | 69.3 nM
CC(C)(C)C1CCc2c(sc(NC(=O)c3ccccc3)c2C(=O)O)C1 (centres unmarked) [#67] | 91.7 nM
CC(C)(C)C1CCc2c(sc(NC(=O)c3ccccc3F)c2C(=O)O)C1 (centres unmarked) [#73] | 180 nM
CC1CCCc2sc(NC(=O)c3ccccc3)c(C(=O)O)c21 (centres unmarked) [#79] | 292 nM
Cc1ccccc1C(=O)Nc1sc2c(c1C(=O)O)CCC(C(C)(C)C)C2 (centres unmarked) [#87] | 445 nM
CC1CCCc2sc(NC(=O)c3ccccc3)c(C(=O)O)c21 (centres unmarked) [#88] | 547 nM
CC(C)(C)C1CCc2c(sc(NC(=O)c3ccccc3C(F)(F)F)c2C(=O)O)C1 (centres unmarked) [#100] | 873 nM
CC(C)(C)C1CCc2c(sc(NC(=O)c3ccccc3C(F)(F)F)c2C(=O)O)C1 (centres unmarked) [#109] | 1200 nM
CC(C)(C)C1CCc2c(sc(NC(=O)c3ccc(F)cc3)c2C(=O)O)C1 (centres unmarked) [#236] | 131 nM
CC(C)(C)C1CCc2c(sc(NC(=O)c3ccc(F)cc3)c2C(=O)O)C1 (centres unmarked) [#237] | 211 nM
CC(C)(C)C1CCc2c(sc(NC(=O)c3ccccc3F)c2C(=O)O)C1 (centres unmarked) [#238] | 310 nM
Cc1ccccc1C(=O)Nc1sc2c(c1C(=O)O)CCC(C(C)(C)C)C2 (centres unmarked) [#239] | 548 nM

same assay, conditions: Influenza A virus, H1N1, A549, 48 h, Human A549 cells, MOI of 0.1, 48 h post-infection, MUNANA hydrolysis readout

SMILES | IC50
COc1cccc(C(=O)Nc2sc3c(c2C(=O)O)CCC(C(C)(C)C)C3)c1 (centres unmarked) [#2] | 70 nM
COc1ccc(C(=O)Nc2sc3c(c2C(=O)O)CCC(C(C)(C)C)C3)cc1OC (centres unmarked) [#3] | 55 nM
COc1cc(C(=O)Nc2sc3c(c2C(=O)O)CCC(C(C)(C)C)C3)cc(OC)c1OC (centres unmarked) [#4] | 1070 nM
COc1ccc(C(=O)Nc2sc3c(c2C(=O)O)CCC(C(C)(C)C)C3)c(F)c1 (centres unmarked) [#5] | 60 nM
COc1ccc(C(=O)Nc2sc3c(c2C(=O)O)CCC(C(C)(C)C)C3)c(F)c1F (centres unmarked) [#6] | 90 nM
CC(C)(C)C1CCc2c(sc(NC(=O)c3ccc(OC(F)F)cc3)c2C(=O)O)C1 (centres unmarked) [#7] | 34.6 nM
CC(C)(C)C1CCc2c(sc(NC(=O)c3ccc(OC(F)(F)F)cc3)c2C(=O)O)C1 (centres unmarked) [#8] | 38.5 nM
CC(C)(C)C1CCc2c(sc(NC(=O)c3ccc(N4CCOCC4)cc3)c2C(=O)O)C1 (centres unmarked) [#9] | 70 nM
CC(C)(C)OC(=O)NCCCOc1ccc(C(=O)Nc2sc3c(c2C(=O)O)CCC(C(C)(C)C)C3)cc1 (centres unmarked) [#11] | 140 nM
CC(C)(C)C1CCc2c(sc(NC(=O)c3ccc(OCCO)cc3)c2C(=O)O)C1 (centres unmarked) [#12] | 450 nM
Cc1ccccc1C(=O)Nc1sc2c(c1C(=O)O)CCC(c1ccccc1)C2 (centres unmarked) [#45] | 338 nM
COc1ccc(C(=O)Nc2sc3c(c2C(=O)O)CCC(c2ccccc2)C3)cc1OC (centres unmarked) [#48] | 90 nM
O=C(Nc1sc2c(c1C(=O)O)CCC(c1ccccc1)C2)c1ccc(O)cc1 (centres unmarked) [#49] | 410 nM
O=C(Nc1sc2c(c1C(=O)O)CCC(c1ccccc1)C2)c1ccc(OCCO)cc1 (centres unmarked) [#50] | 90 nM
COCCOc1ccc(C(=O)Nc2sc3c(c2C(=O)O)CCC(c2ccccc2)C3)cc1 (centres unmarked) [#51] | 38 nM
Cc1cc(F)ccc1N1CCc2c(sc(NC(=O)c3ccccc3)c2C(=O)O)C1 [#53] | 140 nM
COc1ccc(C(=O)Nc2sc3c(c2C(=O)O)CCN(c2ccc(F)cc2C)C3)c(F)c1 [#55] | 410 nM
O=C(Nc1sc2c(c1C(=O)O)CCN(c1ccc(F)cc1F)C2)c1ccccc1 [#56] | 150 nM
Cc1ccccc1N1CCc2c(sc(NC(=O)c3ccccc3)c2C(=O)O)C1 [#57] | 210 nM
CC(C)(C)C1CCc2c(sc(NC(=O)c3ccc(F)cc3)c2C(=O)O)C1 (centres unmarked) [#68] | 120 nM
CC1CCCc2sc(NC(=O)c3ccc(N4CCOCC4)cc3)c(C(=O)O)c21 (centres unmarked) [#70] | 146 nM
CC(C)(C)C1CCc2c(sc(NC(=O)c3ccccn3)c2C(=O)O)C1 (centres unmarked) [#72] | 170 nM
CC1CCCc2sc(NC(=O)c3ccc(OC(F)F)cc3)c(C(=O)O)c21 (centres unmarked) [#75] | 210 nM

SMILES | IC50
COc1ccc(C(=O)Nc2sc3c(c2C(=O)O)C(C)CCC3)c(F)c1 (centres unmarked) [#76] | 218 nM
O=C(Nc1sc2c(c1C(=O)O)CCCC2)c1ccccc1 [#77] | 260 nM
COc1ccc(C(=O)Nc2sc3c(c2C(=O)O)C(C)CCC3)cc1OC (centres unmarked) [#81] | 339 nM
CC(C)(C)C1CCc2c(sc(NC(=O)c3cccc(F)c3)c2C(=O)O)C1 (centres unmarked) [#83] | 380 nM
O=C(Nc1sc2c(c1C(=O)O)CCCCC2)c1ccccc1 [#84] | 400 nM
Cc1ccccc1C(=O)Nc1sc2c(c1C(=O)O)CCC(C)C2 (centres unmarked) [#86] | 410 nM
CC1CCCCC1C(=O)Nc1sc2c(c1C(=O)O)CCC(C(C)(C)C)C2 (centres unmarked) [#89] | 590 nM
COc1ccc(C(=O)Nc2sc3c(c2C(=O)O)CCC(C(C)(C)C)C3)nc1 (centres unmarked) [#91] | 620 nM
O=C(Nc1sc2c(c1C(=O)O)CCN(c1ccc(C(F)(F)F)cc1)C2)c1ccccc1 [#92] | 660 nM
CC(=O)Nc1ccc(C(=O)Nc2sc3c(c2C(=O)O)CCC(C(C)(C)C)C3)cc1 (centres unmarked) [#93] | 660 nM
Cc1ccccc1C(=O)Nc1sc2c(c1C(=O)O)CCCC2 [#95] | 723 nM
CC(C)(C)C1CCc2c(sc(NC(=O)c3ccccc3C(F)(F)F)c2C(=O)O)C1 (centres unmarked) [#97] | 800 nM
CC(C)(C)C1CCc2c(sc(NC(=O)c3ccc4c(c3)OC(F)(F)O4)c2C(=O)O)C1 (centres unmarked) [#99] | 830 nM
Cn1cc(C(=O)Nc2sc3c(c2C(=O)O)CCC(C(C)(C)C)C3)cn1 (centres unmarked) [#101] | 943 nM
CC1CCCc2sc(NC(=O)c3cccc(OC(F)F)c3)c(C(=O)O)c21 (centres unmarked) [#102] | 970 nM
COc1ccccc1C(=O)Nc1sc2c(c1C(=O)O)CCC(C(C)(C)C)C2 (centres unmarked) [#104] | 1050 nM
CC(C)(C)C(=O)Nc1sc2c(c1C(=O)O)CCC(c1ccccc1)C2 (centres unmarked) [#106] | 1100 nM
O=C(Nc1sc2c(c1C(=O)O)C(c1ccccc1)CCC2)c1ccc(OC(F)F)cc1 (centres unmarked) [#108] | 1170 nM
Cc1ccoc1C(=O)Nc1sc2c(c1C(=O)O)CCC(C(C)(C)C)C2 (centres unmarked) [#110] | 1200 nM
Cc1ccccc1C(=O)Nc1sc2cc(C(C)(C)C)ccc2c1C(=O)O [#111] | 1370 nM
COc1ccc(C(=O)Nc2sc3c(c2C(=O)O)CCN(c2ccc(F)cc2)C3)cc1OC [#113] | 1370 nM
CC1(C)Cc2c(sc(NC(=O)c3ccccc3)c2C(=O)O)CO1 [#116] | 1700 nM
Cc1cccc(C)c1C(=O)Nc1sc2c(c1C(=O)O)CCC(C(C)(C)C)C2 (centres unmarked) [#118] | 1950 nM

SMILES | IC50
COc1ccc(C(=O)Nc2sc3c(c2C(=O)O)CC(C)(C)OC3)cc1OC [#119] | 2200 nM
CC(C)(C)C1CCc2c(sc(NC(=O)N3CCCCC3)c2C(=O)O)C1 (centres unmarked) [#120] | 2270 nM
Cc1ccccc1C(=O)Nc1sc2c(c1C(=O)O)CCC2 [#121] | 2350 nM
O=C(Nc1sc2c(c1C(=O)O)CCC(c1ccc(O)cc1)C2)c1ccccc1 (centres unmarked) [#122] | 2370 nM
CC(C)(C)C1CCc2c(sc(NC(=O)c3ccncc3)c2C(=O)O)C1 (centres unmarked) [#123] | 2700 nM
CC(C)(C)C1CCc2c(sc(NC(=O)c3ccc(OCCCN)cc3)c2C(=O)O)C1 (centres unmarked) [#124, hydrochloride salt] | 2700 nM
CC(C)(C)C1CCc2c(sc(NC(=O)Cc3ccccc3)c2C(=O)O)C1 (centres unmarked) [#125] | 2800 nM
Cc1ccccc1C(=O)Nc1sc2c(c1C(=O)O)CCN(C(=O)OC(C)(C)C)C2 [#126] | 2900 nM
Cc1ccccc1C(=O)Nc1sc2ccccc2c1C(=O)O [#128] | 5000 nM
Cc1ccccc1C(=O)Nc1sc2c(c1C(=O)O)CCN(CC(C)C)C2 [#129, formate salt] | 16600 nM
COC(=O)CCCCCOc1ccc(C(=O)Nc2sc3c(c2C(=O)O)CCC(C(C)(C)C)C3)cc1 (centres unmarked) [#172] | 510 nM
CC1(C)Cc2c(sc(NC(=O)c3ccccc3)c2C(=O)O)C(C)(C)O1 [#175] | 740 nM
COC1CN(c2ccc(C(=O)Nc3sc4c(c3C(=O)O)CCC4)cc2)C1 [#207] | 380 nM
O=C(Nc1sc2c(c1C(=O)O)CCC2)c1ccccc1 [#210] | 817 nM
O=C(Nc1sc2c(c1C(=O)O)CCC2)c1ccc(NCC2CCOCC2)cc1 [#211] | 260 nM
COC1CN(c2ccc(C(=O)Nc3sc4c(c3C(=O)O)CCCC4)cc2)C1 [#215] | 110 nM
O=C(Nc1sc2c(c1C(=O)O)CCCC2)c1ccc(NCC2CCOCC2)cc1 [#216] | 60 nM
COC1CN(c2ccc(C(=O)Nc3sc4c(c3C(=O)O)CC(C)(C)OC4(C)C)cc2)C1 [#217] | 510 nM
COCCNc1ccc(C(=O)Nc2sc3c(c2C(=O)O)CCC3)cc1 [#231] | 890 nM
CC1(C)Cc2c(sc(NC(=O)c3ccc(NC4CCOCC4)cc3)c2C(=O)O)C(C)(C)O1 [#232] | 1380 nM
CC1(C)Cc2c(sc(NC(=O)c3ccc(NCC4CCOCC4)cc3)c2C(=O)O)C(C)(C)O1 [#233] | 220 nM
COCCNc1ccc(C(=O)Nc2sc3c(c2C(=O)O)CC(C)(C)OC3(C)C)cc1 [#234] | 980 nM
